In patent publication US20110028566A1, “COMPOSITIONS AND PRODUCTS CONTAINING CYCLOALIPHATIC DIOL ANTIMICROBIAL AGENTS AND METHODS OF USING THE COMPOSITIONS AND PRODUCTS” (EASTMAN CHEMICAL COMPANY, priority 2009, published 2011):

Legend:
Assay in all cases: Microbial challenge testing in BPW
Type in all cases: cell-based
Candida albicans = test system: Candida albicans
Experimental: (§1) The microorganisms used in challenge tests are given in Table 3, designated as either ATCC (American Type Culture Collection) or wild type. These wild type organisms were problematic organisms previously isolated from chemical products. In the description for each organism, the bacteria are indicated as either GN (Gram negative) or GP (Gram positive).
(§2) All of the microorganisms were grown in Tryptose Soy Broth (TSB), DIFCO™ available from Becton, Dickinson and Company, containing 1% dextrose. Aspergillus niger and Candida albicans were incubated at 22° C.±2° C. for at least 96 hours. All bacteria were incubated at 35° C.±2° C. in a humidified incubator for at least 96 hours.
Aspergillus niger and Candida albicans were also grown on Sabouraud dextrose agar (SDA) at 22° C.±2° C. for 7 to 14 days or until full sporulation was achieved.
(§3) The following procedure was followed to determine the amount of each challenge material (inoculum broth) required to produce a 10^8 cfu/mL challenge, which is equivalent to a final test-sample microbial concentration of 10^5 to 10^6 cfu (colony-forming units)/mL.
(§4) Using a sterile serological pipette, 1 mL of the growth from each TSB culture was transferred into tubes containing 9 mL phosphate buffer (pH 7.2) and mixed thoroughly. This process was repeated to make serial 1:10 dilutions. Then 0.1 mL of each sample and dilution was inoculated onto agar plates to produce the equivalent of a further 1:10 dilution. C. albicans and A. niger were inoculated onto SDA and bacteria were inoculated onto Plate Count Agar (PCA), DIFCO™ available from Becton, Dickinson and Company. The 0.1 mL aliquots were evenly distributed on the plates using the spread-plate technique. The spread-plate technique is performed by spreading the aliquot over the entire plate surface using a sterile spreading rod while rotating the plate with a rotary auto-plater. After the inoculum was absorbed completely, each plate was inverted and incubated (fungi at 22° C.±2° C. and bacteria at 35° C.±2° C.).
(§5) After incubation for at least 48 hours, colonies that had developed on the agar plates were counted and recorded with the corresponding dilution. If counting had to be delayed temporarily, plates were refrigerated, preferably no more than 24 hours, until they could be counted. The number of cfu/mL was determined by multiplying the count by the dilution factor for that particular plate.
(§6) Turbidity in Nepholemetric Turbidity Units (NTU) was measured for each serial dilution using the HF-Micro 100 Model Turbidimeter. For each microorganism, the plate counts were compared to the turbidity readings.
On the day of challenge, the Candida albicans inoculum broth was poured through non-absorbent sterile gauze and centrifuged. The […] was then diluted with phosphate buffer (pH 7.2) until the desired turbidity was reached. Using a hemocytometer, a determination was made whether the challenge contained the desired concentration. Dilutions were made through 1.0×10^8 and three SDA spread plates were inoculated with 0.1 mL of each dilution.
(§7) Control substrates (“broth alone”) were prepared for each microorganism separately in triplicate by adding 13.5 mL of BPW (pH 7.0) containing 1% (w/v) dextrose to each 20-mL glass tube; then adding 1.5 mL challenge material to produce a final concentration at time zero of 10^5 to 10^6 cfu/mL and a total volume of 15 mL.
Test sample substrates were prepared containing each test material (1,4-CHDM, etc) or combination of test materials at the concentrations shown in Tables 5 and 6.

Staphylococcus aureus = test system: Staphylococcus aureus
Experimental: as §1, §2, §3, §4, §5, §6, §7
(§8) Test sample substrates were prepared containing each test material (1,4-CHDM, etc) or combination of test materials at the concentrations shown in Tables 5 and 6. Sample substrates were prepared in triplicate, except those substrates containing PE or CG which were prepared in duplicate. Substrates were prepared by adding BPW containing 1% (w/v) dextrose to each 20-mL glass tube, then adding the test material in the amount appropriate to achieve the desired weight/volume percent (g/100 mL) and to obtain a total volume of BPW with dextrose and test material of 13.5 mL. Then 1.5 mL challenge material was added to produce a final concentration at time zero of 10^5 to 10^6 cfu/mL of the respective organism and a total test sample substrate volume of 15 mL.
(§9) After mixing, all challenged substrates were incubated at 35° C.±2° C. for 14 days and then at ambient room temperature.

Proteus vulgaris = test system: Proteus vulgaris
Experimental: as §1, §2, §3, §4, §5, §6, §7, §8, §9

Burkholderia cepacia = test system: Burkholderia cepacia
Experimental: as §1, §2, §3, §4, §5, §6, §7, §8, §9

Escherichia coli = test system: Escherichia coli
Experimental: as §1, §2, §3, §4, §5, §6, §7, §8, §9

Pseudomonas aeruginosa = test system: Pseudomonas aeruginosa
Experimental: as §1, §2, §3, §4, §5, §6, §7, §8, §9

Compound: OCC1CCCC(CO)C1 (stereo not shown) [1,3-CHDM]
- Grade code C. albicans (Candida albicans; 0.5%, 3 days incubation): 4 (1001 to 10,000 colonies (thus 10,000 cfu/mL to 100,000 cfu/mL))
- Grade code C. albicans (Candida albicans; 0.5%, 14 days incubation): 4 (1001 to 10,000 colonies (thus 10,000 cfu/mL to 100,000 cfu/mL))
- Grade code C. albicans (Candida albicans; 0.5%, 30 days incubation): 4 (1001 to 10,000 colonies (thus 10,000 cfu/mL to 100,000 cfu/mL))
- Grade code C. albicans (Candida albicans; 1.25%, 3 days incubation): 4 (1001 to 10,000 colonies (thus 10,000 cfu/mL to 100,000 cfu/mL))
- Grade code C. albicans (Candida albicans; 1.25%, 14 days incubation): 4 (1001 to 10,000 colonies (thus 10,000 cfu/mL to 100,000 cfu/mL))
- Grade code C. albicans (Candida albicans; 1.25%, 30 days incubation): 4 (1001 to 10,000 colonies (thus 10,000 cfu/mL to 100,000 cfu/mL))
- Grade code C. albicans (Candida albicans; 2.5%, 3 days incubation): 4 (1001 to 10,000 colonies (thus 10,000 cfu/mL to 100,000 cfu/mL))
- Grade code C. albicans (Candida albicans; 2.5%, 14 days incubation): 4 (1001 to 10,000 colonies (thus 10,000 cfu/mL to 100,000 cfu/mL))
- Grade code C. albicans (Candida albicans; 2.5%, 30 days incubation): 4 (1001 to 10,000 colonies (thus 10,000 cfu/mL to 100,000 cfu/mL))
- Grade code S. aureus (Staphylococcus aureus; 0.5%, 3 days incubation): 4 (1001 to 10,000 colonies (thus 10,000 cfu/mL to 100,000 cfu/mL))
- Grade code S. aureus (Staphylococcus aureus; 0.5%, 14 days incubation): 4 (1001 to 10,000 colonies (thus 10,000 cfu/mL to 100,000 cfu/mL))
- Grade code S. aureus (Staphylococcus aureus; 0.5%, 30 days incubation): 4 (1001 to 10,000 colonies (thus 10,000 cfu/mL to 100,000 cfu/mL))
- Grade code S. aureus (Staphylococcus aureus; 1.25%, 3 days incubation): 4 (1001 to 10,000 colonies (thus 10,000 cfu/mL to 100,000 cfu/mL))
- Grade code S. aureus (Staphylococcus aureus; 1.25%, 14 days incubation): 4 (1001 to 10,000 colonies (thus 10,000 cfu/mL to 100,000 cfu/mL))
- Grade code S. aureus (Staphylococcus aureus; 1.25%, 30 days incubation): 4 (1001 to 10,000 colonies (thus 10,000 cfu/mL to 100,000 cfu/mL))
- Grade code S. aureus (Staphylococcus aureus; 2.5%, 3 days incubation): 4 (1001 to 10,000 colonies (thus 10,000 cfu/mL to 100,000 cfu/mL))
- Grade code S. aureus (Staphylococcus aureus; 2.5%, 14 days incubation): 4 (1001 to 10,000 colonies (thus 10,000 cfu/mL to 100,000 cfu/mL))
- Grade code S. aureus (Staphylococcus aureus; 2.5%, 30 days incubation): 4 (1001 to 10,000 colonies (thus 10,000 cfu/mL to 100,000 cfu/mL))
- Grade code P. vulqaris (Proteus vulgaris; 0.5%, 3 days incubation): 5 (More than 10,000 colonies estimated (thus >100,000 cfu/mL))
- Grade code P. vulqaris (Proteus vulgaris; 0.5%, 13 days incubation): 5 (More than 10,000 colonies estimated (thus >100,000 cfu/mL))
- Grade code P. vulqaris (Proteus vulgaris; 0.5%, 30 days incubation): 5 (More than 10,000 colonies estimated (thus >100,000 cfu/mL))
- Grade code P. vulqaris (Proteus vulgaris; 1.25%, 3 days incubation): 5 (More than 10,000 colonies estimated (thus >100,000 cfu/mL))
- Grade code P. vulqaris (Proteus vulgaris; 1.25%, 13 days incubation): 4 (1001 to 10,000 colonies (thus 10,000 cfu/mL to 100,000 cfu/mL))
- Grade code P. vulqaris (Proteus vulgaris; 1.25%, 30 days incubation): 4 (1001 to 10,000 colonies (thus 10,000 cfu/mL to 100,000 cfu/mL))
- Grade code B. cepacia (Burkholderia cepacia; 0.5%, 3 days incubation): 5 (More than 10,000 colonies estimated (thus >100,000 cfu/mL))
- Grade code B. cepacia (Burkholderia cepacia; 0.5%, 14 days incubation): 5 (More than 10,000 colonies estimated (thus >100,000 cfu/mL))
- Grade code B. cepacia (Burkholderia cepacia; 0.5%, 30 days incubation): 5 (More than 10,000 colonies estimated (thus >100,000 cfu/mL))
- Grade code B. cepacia (Burkholderia cepacia; 1.25%, 3 days incubation): 4.7
- Grade code B. cepacia (Burkholderia cepacia; 1.25%, 14 days incubation): 4.7
- Grade code B. cepacia (Burkholderia cepacia; 1.25%, 30 days incubation): 4.7
- Grade code B. cepacia (Burkholderia cepacia; 2.5%, 3 days incubation): 4 (1001 to 10,000 colonies (thus 10,000 cfu/mL to 100,000 cfu/mL))
- Grade code B. cepacia (Burkholderia cepacia; 2.5%, 14 days incubation): 4 (1001 to 10,000 colonies (thus 10,000 cfu/mL to 100,000 cfu/mL))
- Grade code B. cepacia (Burkholderia cepacia; 2.5%, 30 days incubation): 4 (1001 to 10,000 colonies (thus 10,000 cfu/mL to 100,000 cfu/mL))
- Grade code E. coli (Escherichia coli; 0.5%, 3 days incubation): 5 (More than 10,000 colonies estimated (thus >100,000 cfu/mL))
- Grade code E. coli (Escherichia coli; 0.5%, 14 days incubation): 5 (More than 10,000 colonies estimated (thus >100,000 cfu/mL))
- Grade code E. coli (Escherichia coli; 0.5%, 30 days incubation): 5 (More than 10,000 colonies estimated (thus >100,000 cfu/mL))
- Grade code E. coli (Escherichia coli; 1.25%, 3 days incubation): 5 (More than 10,000 colonies estimated (thus >100,000 cfu/mL))
- Grade code E. coli (Escherichia coli; 1.25%, 14 days incubation): 4 (1001 to 10,000 colonies (thus 10,000 cfu/mL to 100,000 cfu/mL))
- Grade code E. coli (Escherichia coli; 1.25%, 30 days incubation): 4 (1001 to 10,000 colonies (thus 10,000 cfu/mL to 100,000 cfu/mL))
- Grade code E. coli (Escherichia coli; 2.5%, 3 days incubation): 5 (More than 10,000 colonies estimated (thus >100,000 cfu/mL))
- Grade code E. coli (Escherichia coli; 2.5%, 14 days incubation): 4 (1001 to 10,000 colonies (thus 10,000 cfu/mL to 100,000 cfu/mL))
- Grade code E. coli (Escherichia coli; 2.5%, 30 days incubation): 4 (1001 to 10,000 colonies (thus 10,000 cfu/mL to 100,000 cfu/mL))
- Grade code P. aeruginosa (Pseudomonas aeruginosa; 0.5%, 3 days incubation): 5 (More than 10,000 colonies estimated (thus >100,000 cfu/mL))
- Grade code P. aeruginosa (Pseudomonas aeruginosa; 0.5%, 13 days incubation): 5 (More than 10,000 colonies estimated (thus >100,000 cfu/mL))
- Grade code P. aeruginosa (Pseudomonas aeruginosa; 0.5%, 30 days incubation): 5 (More than 10,000 colonies estimated (thus >100,000 cfu/mL))
- Grade code P. aeruginosa (Pseudomonas aeruginosa; 1.25%, 3 days incubation): 4 (1001 to 10,000 colonies (thus 10,000 cfu/mL to 100,000 cfu/mL))
